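All cell lines were grown in 96-well plates and treated with compound for 48 hours. At the GI50, growth is halved. TGI: total growth inhibition.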

Our source for the GI50 and TGI values is PubChem BioAssay (NCI).

Some test systems named below: BT-549 breast; MDA-MB-231 breast; NCI/ADR-RES ovarian; T-47D breast.
Holding throughout (test): inhibition of tumour cell growth, NCI panel, 48 h

As to `Cc1ccc(S(=O)(=O)N2CCc3ccc(O)c4c3C2Cc2cc(Cl)ccc2-4)cc1` (stereo not drawn), the GI50 in the test on BT-549 breast is 1.95 µM; in the test with MDA-MB-231 breast, 1.21 µM; in the test on NCI/ADR-RES ovarian, 0.819 µM; in the test on T-47D breast, 1.76 µM. For the same compound, the TGI in the test with BT-549 breast turned out to be 9.66 µM; in the test on MDA-MB-231 breast, 4.74 µM; in the test on NCI/ADR-RES ovarian it was 2.27 µM; in the test with T-47D breast, 19.7 µM.
For the compound `COc1ccc2c(c1)CCC1C2CC[C@]2(C)/C(=N/OC(=O)Cc3ccccc3)CCC12` (stereo partly drawn), the GI50 is 24.7 µM with BT-549 breast, 17.3 µM with MDA-MB-231 breast, 20.9 µM with NCI/ADR-RES ovarian and 19.5 µM in the test on T-47D breast. The TGI in the test on BT-549 breast worked out at 49.4 µM; in the test on MDA-MB-231 breast, 38.6 µM; with NCI/ADR-RES ovarian, 39.8 µM; in the test with T-47D breast, 52.2 µM.
With `Cc1nc(NC(=O)CCCN2C(=O)c3cccc4cccc(c34)C2=O)sc1C(=O)Nc1cc(C(=O)NCCCN(C)C)n(C)c1`, the GI50 with MDA-MB-231 breast, with NCI/ADR-RES ovarian and in the test with T-47D breast was over 100 µM in each case. For the same compound, the TGI with MDA-MB-231 breast, with NCI/ADR-RES ovarian and in the test on T-47D breast was over 100 µM throughout.
On to `CCn1cnc2c(Nc3cccc(Cl)c3)nc(N[C@@H]3CCCC[C@@H]3N)nc21`, for which the GI50 is 1.73 µM in the test with BT-549 breast, 1.83 µM in the test on MDA-MB-231 breast, 2.04 µM in the test with NCI/ADR-RES ovarian and 1.98 µM in the test on T-47D breast. Besides, the TGI in the test on BT-549 breast was 3.73 µM; in the test with MDA-MB-231 breast, 5.37 µM; in the test on NCI/ADR-RES ovarian, 6.71 µM; in the test with T-47D breast, 5.16 µM.
With `COc1ccc2c(c1)CC[C@@H]1[C@@H]2CC[C@]2(C)C(c3ccco3)=C(C=O)C[C@@H]12`, the GI50 with BT-549 breast is 17.7 µM; in the test on MDA-MB-231 breast it was 10.8 µM; in the test with NCI/ADR-RES ovarian it was 11.5 µM; with T-47D breast, 18.8 µM. The TGI was 43.3 µM in the test with BT-549 breast, 30.7 µM in the test on MDA-MB-231 breast, 64.6 µM with NCI/ADR-RES ovarian and 92.3 µM in the test with T-47D breast.
Take `CCOC(=O)c1sc(=S)c2c(C(=O)OCC)c(C(=O)OCC)sc2c1C(=O)OCC`: the GI50 is 21.5 µM with BT-549 breast, 14.6 µM in the test with MDA-MB-231 breast, 17.3 µM in the test with NCI/ADR-RES ovarian and 23.7 µM in the test with T-47D breast. Further, the TGI was determined as 45.4 µM with BT-549 breast, 32.7 µM in the test on MDA-MB-231 breast, 35.9 µM in the test on NCI/ADR-RES ovarian and 95.5 µM in the test with T-47D breast.
With `Nc1ccc(/C=N/Nc2ccnc3c(N)cccc23)c2cccnc12`, the GI50 was 1.6 µM in the test with MDA-MB-231 breast, 1.93 µM in the test with NCI/ADR-RES ovarian and 2.27 µM in the test on T-47D breast. The TGI in the test with MDA-MB-231 breast was determined as 3.15 µM; in the test with NCI/ADR-RES ovarian, 4.41 µM; in the test on T-47D breast, 5.02 µM.
For the compound `CCC(C)C(NC(=O)C1CCCN1C(=O)C(NC(=O)C(C)N)C(C)C)C(N)=O` (stereo not drawn), the GI50 in the test on BT-549 breast, in the test with MDA-MB-231 breast and in the test on T-47D breast was over 100 µM in each case. Further, the TGI with BT-549 breast, with MDA-MB-231 breast and with T-47D breast was over 100 µM in each case.
Regarding `C=C1C(=O)O[C@H]2[C@H]1CC/C(COC(=O)NCc1c[nH]c3ccc(Cl)cc13)=C\CC[C@@]1(C)O[C@@H]21`, the GI50 was 1.18 µM in the test on BT-549 breast, 1.66 µM in the test on MDA-MB-231 breast and 2.84 µM in the test on NCI/ADR-RES ovarian. Moreover, the TGI in the test on BT-549 breast stood at 2.61 µM; in the test on MDA-MB-231 breast, 3.3 µM; in the test on NCI/ADR-RES ovarian, 11.3 µM.
Take `CCC(=C/[C@H](C)C/C=C/C(C)=C/[C@@H](C)C(=O)[C@@H](C)[C@H](O)[C@@H](C)CC)/C=C/[C@H]1OC(=O)C=C[C@H]1C`: the GI50 in the test with BT-549 breast, with MDA-MB-231 breast, in the test on NCI/ADR-RES ovarian and in the test with T-47D breast was under 0.01 µM each time. The TGI with MDA-MB-231 breast turned out to be 1.5 µM; in the test with NCI/ADR-RES ovarian, 1.39 µM; with T-47D breast it was 0.88 µM.
Regarding `NCCC(O)(P(=O)(O)O)P(=O)(O)O`, the GI50 in the test on BT-549 breast, in the test on MDA-MB-231 breast, in the test with NCI/ADR-RES ovarian and in the test on T-47D breast was over 100 µM in each case. Besides, the TGI in the test with BT-549 breast, with MDA-MB-231 breast, in the test with NCI/ADR-RES ovarian and in the test on T-47D breast was over 100 µM each time.
For the compound `COc1ccc(-c2nc(-c3nc4ccc(OC)cc4[nH]3)cc3c2[nH]c2ccccc23)cc1`, the GI50 in the test on BT-549 breast was 7.1 µM; in the test with MDA-MB-231 breast, 8.51 µM; with NCI/ADR-RES ovarian it was 2.1 µM; in the test on T-47D breast, 2.27 µM. The TGI in the test with BT-549 breast, in the test on MDA-MB-231 breast, in the test with NCI/ADR-RES ovarian and in the test with T-47D breast was over 100 µM throughout.
Consider `CC(=O)N=c1ccc2nc3c(cc(N)c4ccccc43)oc-2c1`, for which the GI50 in the test on BT-549 breast is 2.47 µM; in the test with MDA-MB-231 breast, 1.25 µM; with NCI/ADR-RES ovarian, 1.62 µM. The TGI is 7.46 µM in the test on BT-549 breast, 3.92 µM in the test on MDA-MB-231 breast and 4.95 µM in the test on NCI/ADR-RES ovarian.
Turning to `COc1ccc(-c2ccc(C3CC(c4ccc(Cl)cc4)=NN3)o2)c([N+](=O)[O-])c1` (stereo not drawn), the GI50 with BT-549 breast, in the test on MDA-MB-231 breast, in the test on NCI/ADR-RES ovarian and in the test on T-47D breast was over 100 µM throughout. For the same compound, the TGI in the test with BT-549 breast, in the test on MDA-MB-231 breast, in the test on NCI/ADR-RES ovarian and in the test with T-47D breast was over 100 µM in each case.
`COc1cc(-n2cc(-c3ccc(Cl)cc3)[nH]c2=O)cc(OC)c1OC`: the results for the GI50 in the test on BT-549 breast, in the test with MDA-MB-231 breast and in the test on NCI/ADR-RES ovarian were 27.1 µM, 23.1 µM and 23.1 µM, respectively. The TGI in the test on BT-549 breast was determined as 71.8 µM; with MDA-MB-231 breast, 55.4 µM; with NCI/ADR-RES ovarian, 63.6 µM.
Consider `CCOC(=O)c1c(C(F)(F)F)n([O-])c2ccc(OC)cc2[n+]1=O`, for which the GI50 in the test with BT-549 breast is 4.29 µM; in the test on MDA-MB-231 breast, 5.38 µM; in the test with NCI/ADR-RES ovarian, 3.72 µM; in the test with T-47D breast, 2.6 µM. Moreover, the TGI is 33.7 µM in the test with BT-549 breast, 51.6 µM in the test on MDA-MB-231 breast, 40.7 µM in the test on NCI/ADR-RES ovarian and 8.69 µM with T-47D breast.
For the compound `COc1ccc([N+](=O)[O-])c(S(=O)(=O)c2ccc(Cl)cc2)n1`, the GI50 is 2.75 µM in the test with BT-549 breast, 2.83 µM in the test on MDA-MB-231 breast, 4.93 µM in the test with NCI/ADR-RES ovarian and 2.12 µM in the test on T-47D breast. Also, the TGI in the test with BT-549 breast is 8.97 µM; in the test on MDA-MB-231 breast, 7.43 µM; with NCI/ADR-RES ovarian it was over 100 µM; in the test on T-47D breast it was 5.41 µM.
